We go through nine compounds from patent US20230017045A1, “PYRIDINE AND PYRIMIDINE CARBOXYLATE HERBICIDES AND METHODS OF USE THEREOF” (Dow AgroSciences LLC, priority 2017, published 2023).

The subject of the assay is test plant species. Kind of assay: Post-emergent herbicidal activity test (greenhouse, foliar spray, visual growth reduction). In kind it is in vivo. To be noted: post-emergence, 336 h, 140 g ai/ha, 14 days after application. In short, it runs like this: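 Seedlings were raised 7-21 d in a greenhouse under a 15 h photoperiod until the first or second true leaf. Each compound, dissolved in acetone:DMSO 97:3 and diluted into a surfactant-containing spray mixture, was then applied at 187 L/ha. Plants were subirrigated, and growth reduction was scored visually at 14 d.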

Where [1] appears, read: ALOMY: blackgrass (Alopecurus myosuroides), read-out: Visual Growth Reduction (%) 14 Days After Application, ALOMY.
The mark [2] stands for this setting: AMARE: redroot pigweed (Amaranthus retroflexus), read-out: Visual Growth Reduction (%) 14 Days After Application, AMARE.
The mark [3] stands for this setting: AVEFA: wild oat (Avena fatua), read-out: Visual Growth Reduction (%) 14 Days After Application, AVEFA.
[4] abbreviates: CHEAL: lambsquarters (Chenopodium album), read-out: Visual Growth Reduction (%) 14 Days After Application, CHEAL.
[5] abbreviates: CIRAR: canada thistle (Cirsium arvense), read-out: Visual Growth Reduction (%) 14 Days After Application, CIRAR.
Setting [6] is: CYPES: yellow nutsedge (Cyperus esculentus), read-out: Visual Growth Reduction (%) 14 Days After Application, CYPES.
Setting [7] is: DIGSA: crabgrass (Digitaria sanguinalis), read-out: Visual Growth Reduction (%) 14 Days After Application, DIGSA.
The mark [8] stands for this setting: ECHCG: barnyardgrass (Echinochloa crus-galli), read-out: Visual Growth Reduction (%) 14 Days After Application, ECHCG.
Setting [9] is: IPOHE: ivy-leaf morning glory (Ipomoea hederacea), read-out: Visual Growth Reduction (%) 14 Days After Application, IPOHE.
[10] abbreviates: KCHSC: kochia (Bassia scoparia), read-out: Visual Growth Reduction (%) 14 Days After Application, KCHSC.
[11] abbreviates: ORYSA: rice (Oryza sativa), read-out: Visual Growth Reduction (%) 14 Days After Application, ORYSA.
Setting [12] is: SETFA: giant foxtail (Setaria faberi), read-out: Visual Growth Reduction (%) 14 Days After Application, SETFA.
Where [13] appears, read: SORVU: grain sorghum (Sorghum vulgare), read-out: Visual Growth Reduction (%) 14 Days After Application, SORVU.
The mark [14] stands for this setting: STEME: common chickweed (Stellaria media), read-out: Visual Growth Reduction (%) 14 Days After Application, STEME.
[15] abbreviates: TRZAS: wheat, spring (Triticum aestivum), read-out: Visual Growth Reduction (%) 14 Days After Application, TRZAS.

Read-outs that look alike come from different tables or passages of the source.

`O=C(O)c1nc(-c2c(Cl)cc(C(F)(F)F)cc2Cl)ccc1Cl` [F156, 3-Chloro-6-(2,6-dichloro-4-(trifluoromethyl)phenyl)picolinic acid]: the pest or weed control at 140 g/ha by setting is: under setting [1], 45 to 59%; under setting [2], 95 to 100%; under setting [3], 0 to 29%; under setting [4], 85 to 94%; under setting [5], 75 to 84%; under setting [6], 0 to 29%. The pest or weed control at 140 g/ha lay in the range of 85 to 94% under setting [7]; 75 to 84% under setting [8]; 95 to 100% under setting [9]; 85 to 94% under setting [10]; 45 to 59% under setting [11]; 95 to 100% under setting [12]. The pest or weed control at 140 g/ha fell in the range of 75 to 84% under setting [13], 0 to 29% under setting [14] and 60 to 74% under setting [15].
With `COC(=O)c1nc(-c2ccc(OC(F)F)cc2Cl)ccc1Cl` [F157, methyl 3-chloro-6-(2-chloro-4-(difluoromethoxy)phenyl)picolinate], the pest or weed control at 140 g/ha is, setting by setting: under setting [1], 0 to 29%; under setting [2], 95 to 100%; under setting [3], 45 to 59%; under setting [4], 85 to 94%; under setting [5], 85 to 94%; under setting [6], 0 to 29%. Moreover, the pest or weed control at 140 g/ha runs as follows: under setting [7], 85 to 94%; under setting [8], 85 to 94%; under setting [9], 95 to 100%; under setting [10], 85 to 94%; under setting [11], 0 to 29%; under setting [12], 85 to 94%. For the same compound, the pest or weed control at 140 g/ha is 95 to 100% under setting [13], 0 to 29% under setting [14] and 60 to 74% under setting [15].
With `COC(=O)c1nc(-c2ccc(C(F)(F)F)cc2F)c(F)cc1Cl` [F158, methyl 3-chloro-5-fluoro-6-(2-fluoro-4-(trifluoromethyl)phenyl)picolinate], the pest or weed control at 140 g/ha runs as follows: under setting [1], 0 to 29%; under setting [2], 95 to 100%; under setting [3], 30 to 44%; under setting [4], 95 to 100%; under setting [5], 85 to 94%; under setting [6], 0 to 29%. Also, the pest or weed control at 140 g/ha was in the range of 85 to 94% under setting [7]; 45 to 59% under setting [8]; 95 to 100% under setting [9]; 60 to 74% under setting [10]; 0 to 29% under setting [11]; 75 to 84% under setting [12]. Moreover, the pest or weed control at 140 g/ha is 75 to 84% under setting [13], 0 to 29% under setting [14] and 60 to 74% under setting [15].
With `COC(=O)c1nc(-c2ccc(OS(C)(=O)=O)cc2)c(F)cc1Cl` [F159, Methyl 3-chloro-5-fluoro-6-(4-((methylsulfonyl)oxy)phenyl)picolinate], the pest or weed control at 140 g/ha is, setting by setting: under setting [1], 0 to 29%; under setting [2], 60 to 74%; under setting [3], 0 to 29%; under setting [4], 45 to 59%; under setting [5], 30 to 44%; under setting [6], 0 to 29%. Besides, the pest or weed control at 140 g/ha was 60 to 74% under setting [7]; 30 to 44% under setting [8]; 45 to 59% under setting [9]; 0 to 29% under setting [10]; 0 to 29% under setting [11]; 60 to 74% under setting [12]. In addition, the pest or weed control at 140 g/ha under setting [13] lay in the range of 30 to 44%, the pest or weed control at 140 g/ha under setting [14] was 0 to 29% and the pest or weed control at 140 g/ha under setting [15] lay within 0 to 29%.
With `O=C(O)c1nc(-c2ccc(C(F)(F)F)cc2F)c(F)cc1Cl` [F160, 3-Chloro-5-fluoro-6-(2-fluoro-4-(trifluoromethyl)phenyl) picolinic acid], the pest or weed control at 140 g/ha is, setting by setting: under setting [1], 75 to 84%; under setting [2], 95 to 100%; under setting [3], 85 to 94%; under setting [4], 95 to 100%; under setting [5], 85 to 94%; under setting [6], 60 to 74%. Moreover, the pest or weed control at 140 g/ha reads like this: under setting [7], 85 to 94%; under setting [8], 95 to 100%; under setting [9], 95 to 100%; under setting [10], 95 to 100%; under setting [11], 60 to 74%; under setting [12], 85 to 94%. In addition, the pest or weed control at 140 g/ha was 95 to 100% under setting [13], 30 to 44% under setting [14] and 85 to 94% under setting [15].
On to `COC(=O)c1nc(-c2ccc(OC(F)F)cc2OC)c(F)cc1Cl` [F161 (F393)], for which the pest or weed control at 140 g/ha under setting [1] was in the range of 0 to 29%; the pest or weed control at 140 g/ha under setting [2] lay in the range of 95 to 100%; the pest or weed control at 140 g/ha under setting [3] lay within 75 to 84%; the pest or weed control at 140 g/ha under setting [4] lay within 85 to 94%; the pest or weed control at 140 g/ha under setting [5] fell in the range of 85 to 94%; the pest or weed control at 140 g/ha under setting [6] was 0 to 29%. Under setting [7], the pest or weed control at 140 g/ha was in the range of 45 to 59%.
For `COC(=O)c1nc(-c2ccc(OC(F)F)cc2OC)c(F)cc1Cl` [F161, Methyl 3-chloro-6-4-(difluoromethoxy)-2-methoxyphenyl)-5-fluoropicolinate], the pest or weed control at 140 g/ha fell in the range of 85 to 94% under setting [8]; 95 to 100% under setting [9]; 85 to 94% under setting [10]; 0 to 29% under setting [11]; 85 to 94% under setting [12]; 95 to 100% under setting [13]. In addition, the pest or weed control at 140 g/ha runs as follows: under setting [14], 30 to 44%; under setting [15], 60 to 74%.
On to `N#Cc1cc(C(F)(F)F)cc(Cl)c1-c1ccc(Cl)c(C(=O)O)n1` [F162, 3-Chloro-6-(2-chloro-6-cyano-4-(trifluoromethyl)phenyl)picolinic acid], for which the pest or weed control at 140 g/ha under setting [1] is 0 to 29%; the pest or weed control at 140 g/ha under setting [2] is 95 to 100%; the pest or weed control at 140 g/ha under setting [3] was in the range of 30 to 44%; the pest or weed control at 140 g/ha under setting [4] fell in the range of 95 to 100%; the pest or weed control at 140 g/ha under setting [5] was 85 to 94%; the pest or weed control at 140 g/ha under setting [6] is 0 to 29%. Moreover, the pest or weed control at 140 g/ha under setting [7] was 75 to 84%; the pest or weed control at 140 g/ha under setting [8] fell in the range of 95 to 100%; the pest or weed control at 140 g/ha under setting [9] fell in the range of 95 to 100%; the pest or weed control at 140 g/ha under setting [10] was in the range of 95 to 100%; the pest or weed control at 140 g/ha under setting [11] lay in the range of 0 to 29%; the pest or weed control at 140 g/ha under setting [12] lay within 85 to 94%. The pest or weed control at 140 g/ha by setting is: under setting [13], 60 to 74%; under setting [14], 0 to 29%; under setting [15], 45 to 59%.
As for `COC(=O)c1nc(-c2ccc(OCC(F)(F)F)cc2)c(F)cc1Cl` [F163, Methyl 3-chloro-5-fluoro-6-(4-(2,2,2-trifluoroethoxy)phenyl) picolinate], the pest or weed control at 140 g/ha is 0 to 29% under setting [1]; 30 to 44% under setting [2]; 0 to 29% under setting [3]; 45 to 59% under setting [4]; 0 to 29% under setting [5]; 0 to 29% under setting [6]. In addition, the pest or weed control at 140 g/ha under setting [7] was 0 to 29%; the pest or weed control at 140 g/ha under setting [8] lay in the range of 0 to 29%; the pest or weed control at 140 g/ha under setting [9] lay within 45 to 59%; the pest or weed control at 140 g/ha under setting [10] was 0 to 29%; the pest or weed control at 140 g/ha under setting [11] is 0 to 29%; the pest or weed control at 140 g/ha under setting [12] fell in the range of 0 to 29%. In addition, the pest or weed control at 140 g/ha is, setting by setting: under setting [13], 0 to 29%; under setting [14], 0 to 29%; under setting [15], 0 to 29%.
